The values that follow come from paper PMC8742647 (Clinical and Translational Science, 2021).

The conditions of data set [1]: for Predicted CLt,human, FCIM: from CLt in rats, monkeys and dogs and fu,p ratio rat/human; for Fold error (predicted/observed), FCIM: predicted/observed CLt,human.
Data set [2] in a line: fraction unbound in plasma, equilibrium dialysis. Type of data set: in vitro ADME, Sprague–Dawley rat. The following applies: fraction unbound in rat plasma. (In general: In equilibrium dialysis only unbound substance equilibrates across the membrane.)
For data set [3] the following is noted: ref Table S1; cited from earlier work.
Data set [4] in a line: prediction of CLt,human by single-species allometric scaling from PXB-mice. The settings on record: for Fold error (predicted/observed), PXB‐SSS: predicted/observed CLt,human; for Predicted CLt,human, PXB‐SSS: scaled from CLt in PXB-mice, exponent 0.75. More on the design: species or system humans.
The nature of data set [5]: prediction of CLt,human by physiologically based scaling using PXB-mice. More on the design: species or system humans. The following applies: for Predicted CLt,human, PXB‐PBS: from CLt in PXB-mice, dispersion model, CLint per hepatocyte assumed equal; for Fold error (predicted/observed), PXB‐PBS: predicted/observed CLt,human.
For data set [6] the following is noted: humans; ref Table S1; cited from earlier work.
A short description of data set [7]: prediction of CLt,human by in vitro–in vivo extrapolation. Details: species or system humans. The settings on record: for Predicted CLt,human, IVIVE: from in vitro CLint per human hepatocyte, dispersion model; for Fold error (predicted/observed), IVIVE: predicted/observed CLt,human.
Data set [8] in a line: fraction unbound in plasma, equilibrium dialysis. In kind it is in vitro ADME, humans. The following applies: fraction unbound in human plasma.
Data set [9] is described as follows: prediction of CLt,human by multispecies allometric scaling, rule of exponent. The following applies: for Predicted CLt,human, ROE: from CLt in rats, monkeys and dogs; for Fold error (predicted/observed), ROE: predicted/observed CLt,human.
For data set [10] the following is noted: ref Table S1; cited from earlier work. The source holds these as a separate data set.
Data set [11] can be described thus: total clearance after intravenous administration to rats. The following applies: intravenous cassette dose 0.1 mg/kg, N = 3. Type of data set: in vivo, Sprague–Dawley rats.
A short description of data set [12]: total clearance after intravenous administration to PXB-mice. The settings on record: intravenous cassette dose 0.1 mg/kg, N = 3, noncompartmental analysis. In kind it is in vivo, PXB‐mice (chimeric mice with humanized livers).
The subject of data set [13] is cryopreserved human hepatocytes. Nature of the data set: in vitro metabolic stability assay using cryopreserved human hepatocytes.
The conditions of data set [14]: blood‐to‐plasma concentration ratio, ref Table S1; cited from earlier work.
Data set [15] is described as follows: total clearance after intravenous administration to monkeys. In kind it is in vivo, cynomolgus monkeys. The settings on record: intravenous cassette dose 0.1 mg/kg, N = 3.
For data set [16] the following is noted: fraction unbound in rat plasma; ref Table S1; cited from earlier work.

Read-outs that look alike come from different tables or passages of the source.

Turning to `CCNC(=O)OC1CCN(c2nncc3cc(OC)c(OC)cc23)CC1` [Carbazeran], in [1], the “Predicted CLt,human, FCIM” value is 7.6 mL/min/kg and the “Fold error (predicted/observed), FCIM” value is recorded as 0.20. In addition, the “f u,p, Rats” value in data set [2] was 0.169. Moreover, in [3], the “CLt, Dogs” value is 11.5 mL/min/kg. Besides, in [4], the “Fold error (predicted/observed), PXB‐SSS” value is on record as 0.34 and the “Predicted CLt,human, PXB‐SSS” value was 12.8 mL/min/kg. For the same compound, in data set [5], the “Predicted CLt,human, PXB‐PBS” value was 16.4 mL/min/kg and the “Fold error (predicted/observed), PXB‐PBS” value is listed as 0.44. Also, the “Observed CLt,human” value in [6] is 37.6 mL/min/kg. For the same compound, in data set [7], the “Predicted CLt,human, IVIVE” value was 15.5 mL/min/kg and the “Fold error (predicted/observed), IVIVE” value was 0.41. Moreover, the “f u,p, Humans” value in data set [8] is reported as 0.148. Also, in [9], the “Predicted CLt,human, ROE” value was 8.6 mL/min/kg and the “Fold error (predicted/observed), ROE” value is 0.23. In addition, the “CLt, Monkeys” value in [10] is 87.87 mL/min/kg. In addition, the “CLt, Rats” value in data set [11] is 42.22 mL/min/kg. In addition, in [12], the “CLt, PXB‐mice” value is 99.67 mL/min/kg.
`CN1C(C(=O)Nc2ccccn2)=C(O)c2sccc2S1(=O)=O` [Tenoxicam]: in [1], the “discrepancy between observed and predicted CLt,human, FCIM approach” value was “more than 3 fold”; the “Predicted CLt,human, FCIM” value is 0.085 mL/min/kg; the “Fold error (predicted/observed), FCIM” value was 2.83. Further, the “CLt, Dogs” value in data set [3] was 0.104 mL/min/kg. For the same compound, in [13] (criterion for low‐CLint compounds: no significant turnover (<20%)), the “turnover during a 4‐h incubation in the human hepatocyte assay” value is reported as below 20%. Further, in data set [4], the “Fold error (predicted/observed), PXB‐SSS” value is listed as 1.29 and the “Predicted CLt,human, PXB‐SSS” value is 0.039 mL/min/kg. Further, the “R b, Humans” value in data set [14] is listed as 0.67. For the same compound, in data set [5], the “Predicted CLt,human, PXB‐PBS” value was 0.044 mL/min/kg and the “Fold error (predicted/observed), PXB‐PBS” value is on record as 1.46. The “Observed CLt,human” value in data set [6] is 0.03 mL/min/kg. In addition, the “CLt, Monkeys” value in data set [15] came to 0.061 mL/min/kg. In data set [8], the “f u,p, Humans” value worked out at 0.015. In data set [9], the “discrepancy between observed and predicted CLt,human, ROE approach” value is recorded as “more than 3 fold”; the “Predicted CLt,human, ROE” value is 0.029 mL/min/kg; the “Fold error (predicted/observed), ROE” value is listed as 0.98. Besides, in [11], the “CLt, Rats” value stood at 0.49 mL/min/kg. The “f u,p, Rats” value in data set [16] was 0.030. In data set [12], the “CLt, PXB‐mice” value turned out to be 0.2878 mL/min/kg.
For the compound `CN[C@@H]1C[C@H]2O[C@@](C)([C@@H]1OC)n1c3ccccc3c3c4c(c5c6ccccc6n2c5c31)C(=O)N[C@H]4O` [UCN−01, 7‐hydroxystaurosporine], in [1], the “Predicted CLt,human, FCIM” value was 1.3765 mL/min/kg and the “Fold error (predicted/observed), FCIM” value is on record as 372.03. Also, the “CLt, Dogs” value in data set [3] is 10.27 mL/min/kg. The “% remaining after a 4‐h incubation” value in data set [13] (cryopreserved human hepatocytes, 0.5 million cells/ml, 0.1 or 1 µmol/l, 4 h) was 4%. Moreover, the “CLint per hepatocyte, Humans” value in data set [13] (in vitro, human hepatocytes, corrected with fraction unbound in hepatocytes and medium) is 83.5 µl/min/1 × 10^6 cells. In addition, in data set [4], the “Fold error (predicted/observed), PXB‐SSS” value is 1.35 and the “Predicted CLt,human, PXB‐SSS” value is 0.0050 mL/min/kg. For the same compound, in [5], the “Predicted CLt,human, PXB‐PBS” value is 0.0056 mL/min/kg and the “Fold error (predicted/observed), PXB‐PBS” value is reported as 1.52. For the same compound, the “Observed CLt,human” value in data set [6] is 0.0037 mL/min/kg. In addition, the “CLt, Monkeys” value in [15] was found to be 3.36 mL/min/kg. For the same compound, in data set [7], the “Predicted CLt,human, IVIVE” value is 0.6186 mL/min/kg and the “Fold error (predicted/observed), IVIVE” value is given as 167.20. Further, the “f u,p, Humans” value in data set [8] came to 0.003. Also, in data set [9], the “Predicted CLt,human, ROE” value was 1.5640 mL/min/kg and the “Fold error (predicted/observed), ROE” value is 422.70. For the same compound, the “CLt, Rats” value in data set [11] was determined as 77.37 mL/min/kg. In data set [16], the “f u,p, Rats” value is recorded as 0.0175. The “CLt, PXB‐mice” value in [12] was determined as 0.0369 mL/min/kg.
